Experiments:
[1] = test system: GAL4RXR + VP16CfEcR; assay: Transactivation of reporter gene through switch 1.3 in CHO cells; format: cell-based, Mus musculus; Choristoneura fumiferana; conditions: switch 1.3, pGAL4RELuc
Experimental: (§1) The cells were harvested and reporter activity was assayed.
(§2) Cells were harvested 24–48 hr after adding ligands. […] Twenty μl of lysate was assayed.

[2] = molecular target: T1, GAL4RXR + VP16DmEcR (Drosophila melanogaster, UniProt P34021); assay: Transactivation of reporter gene through switch 1.4 in CV1 cells; format: cell-based, Mus musculus; Drosophila melanogaster; design: expressed in transfected cells; host or cells: CV1 cells; conditions: switch 1.4, pGAL4RELuc
T1 sequence (P34021 254-878): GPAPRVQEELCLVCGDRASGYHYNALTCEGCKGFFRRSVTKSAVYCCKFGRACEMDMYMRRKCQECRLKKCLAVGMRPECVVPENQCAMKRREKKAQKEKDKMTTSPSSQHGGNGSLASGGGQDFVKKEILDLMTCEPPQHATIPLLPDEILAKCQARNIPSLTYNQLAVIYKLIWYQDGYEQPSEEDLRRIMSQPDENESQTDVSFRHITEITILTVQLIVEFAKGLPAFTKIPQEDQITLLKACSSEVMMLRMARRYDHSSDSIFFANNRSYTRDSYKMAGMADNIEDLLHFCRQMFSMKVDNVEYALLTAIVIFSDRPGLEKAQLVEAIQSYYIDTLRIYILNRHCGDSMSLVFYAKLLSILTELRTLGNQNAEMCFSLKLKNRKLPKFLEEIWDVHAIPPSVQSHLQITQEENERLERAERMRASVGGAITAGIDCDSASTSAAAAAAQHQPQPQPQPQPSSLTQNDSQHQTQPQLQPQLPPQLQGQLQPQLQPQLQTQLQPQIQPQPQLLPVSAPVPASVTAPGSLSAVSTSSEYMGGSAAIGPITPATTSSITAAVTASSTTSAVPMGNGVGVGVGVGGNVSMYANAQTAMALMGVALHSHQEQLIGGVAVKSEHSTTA
T1 sequence (P28700 206-467 partner limits assumed): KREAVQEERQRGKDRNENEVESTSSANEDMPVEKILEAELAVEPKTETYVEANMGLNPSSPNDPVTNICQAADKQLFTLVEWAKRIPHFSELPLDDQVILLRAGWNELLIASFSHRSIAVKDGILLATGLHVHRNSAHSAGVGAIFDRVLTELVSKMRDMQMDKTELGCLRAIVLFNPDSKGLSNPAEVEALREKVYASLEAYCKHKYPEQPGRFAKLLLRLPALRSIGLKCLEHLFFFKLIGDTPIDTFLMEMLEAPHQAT
Experimental: This construct was prepared in the same way as switch 1.3 except CfEcRCDEF was replaced with DmEcRCDEF (SEQ ID NO: 6).
as §1
(§3) The cells were plated when they reached 50% confluency.
(§4) The same procedures described for NIH3T3 cells were followed for CV1 cells
as §2

[3] = test system: CfVgRXR; assay: Transactivation of reporter gene through switch 1.10 in 3T3 cells; format: cell-based, Choristoneura fumiferana; conditions: switch 1.10, pIND(SP1)LacZ
Experimental: This example was prepared in the same way as switch 1.9 except MmRXR (SEQ ID NO: 62) was deleted.
as §1, §3, §2

[4] = test system: CfEcR; assay: Transactivation through CfEcR- versus DmEcR-based switches in mammalian cell lines (Tables 1–4); design: species or system Choristoneura fumiferana
Experimental: as §2

[5] = test system: VP16CfEcR; assay: Transactivation of reporter gene through switch 1.7 in CHO cells; format: cell-based, Choristoneura fumiferana; conditions: switch 1.7, pEcRELuc
Experimental: Six ecdysone response elements (“EcRE”; SEQ ID NO: 55) from the hsp27 gene were placed upstream of the promoter and a luciferase gene (SEQ ID NO: 66). This switch most probably uses endogenous RXR.
as §1, §2

[6] = test system: GAL4USP + VP16CfEcR; assay: Transactivation of reporter gene through switch 1.5 in 3T3 cells; format: cell-based, Choristoneura fumiferana; conditions: switch 1.5, pGAL4RELuc
Experimental: This construct was prepared in the same way as switch 1.3 except MmRXRDEF was replaced with CfUSPDEF (SEQ ID NO: 67).
as §1, §3, §2

[7] = test system: GAL4EcR + VP16USP; assay: Transactivation of reporter gene through switch 1.2 in CV1 cells; format: cell-based, Choristoneura fumiferana; conditions: switch 1.2, pGAL4RELuc
Experimental: This construct was prepared in the same way as in switch 1.1 above except MmRXRDEF was replaced with the D, E and F domains from spruce budworm USP (“CfUSPDEF”; SEQ ID NO: 67). The constructs used in this example are similar to those disclosed in U.S. Pat. No. 5,880,333 except that Choristoneura fumiferana USP rather than Drosophila melanogaster USP was utilized.
as §1, §3, §4, §2

[8] = test system: CfVgRXR + MmRXR; assay: Transactivation of reporter gene through switch 1.9 in CHO cells; format: cell-based, Choristoneura fumiferana; Mus musculus; conditions: switch 1.9, pIND(SP1)LacZ
Experimental: This example was prepared in the same way as switch 1.8 except DmEcR was replaced with a truncated CfEcR comprising a partial A/B domain and the complete CDEF domains [SEQ ID NO: 70 (polynucleotide) and SEQ ID NO: 71 (polypeptide)].
as §1, §2

`CCc1c(OC)cccc1C(=O)NN(C(=O)c1cc(C)cc(C)c1)C(C)(C)C` [N-(2-ethyl-3-methoxybenzoyl)-N′-(3,5-dimethylbenzoyl)-N′-t-butylhydrazine] was tested, and the “Mean Fold Activation with 50 μM N-(2-ethyl-3-methoxybenzoyl)-N′-(3,5-dimethylbenzoyl)-N′-t-butylhydrazine” value [1] was 85 fold, the “Mean Fold Activation Through N-(2-ethyl-3-methoxybenzoyl)-N′-(3,5-dimethylbenzoyl)-N′-t-butylhydrazine” value [2] was 80 fold and the “Mean Fold Activation Through N-(2-ethyl-3-methoxybenzoyl)-N′-(3,5-dimethylbenzoyl)-N′-t-butylhydrazine” value [3] was 2 fold. For the same compound, the “Potency as activator of CfEcR compared to DmEcR” value [4] was “more potent activators of CfEcR as compared to Drosophila melanogaster EcR (DmEcR)”, the “Mean Fold Activation with 50 μM N-(2-ethyl-3-methoxybenzoyl)-N′-(3,5-dimethylbenzoyl)-N′-t-butylhydrazine” value [5] was 36 fold and the “Mean Fold Activation Through N-(2-ethyl-3-methoxybenzoyl)-N′-(3,5-dimethylbenzoyl)-N′-t-butylhydrazine” value [6] was 3 fold. For the same compound, the “Mean Fold Activation Through N-(2-ethyl-3-methoxybenzoyl)-N′-(3,5-dimethylbenzoyl)-N′-t-butylhydrazine” value [7] was 2 fold and the “Mean Fold Activation with 50 μM N-(2-ethyl-3-methoxybenzoyl)-N′-(3,5-dimethylbenzoyl)-N′-t-butylhydrazine” value [8] was 27 fold.

From patent publication US7091038B2, “Ecdysone receptor-based inducible gene expression system” (RheoGene, Inc., priority 2000, dated 2006)
